Test results taken from patent publication US8318785B2, “Pharmaceutical compounds” (Orion Corporation, priority 2005, dated 2012).

How the values were obtained:
[1] = target: T1, recombinant human soluble form of COMT (hS-COMT) (Homo sapiens, UniProt P21964); experiment: Determination of COMT inhibiting activity in vitro; assay type: biochemical; details: tight binding inhibition constant, 25 μM SAM, substrate esculetin 10 μM, pH 7.4, 37° C.
T1 sequence (P21964 1-221 isoform P21964-2): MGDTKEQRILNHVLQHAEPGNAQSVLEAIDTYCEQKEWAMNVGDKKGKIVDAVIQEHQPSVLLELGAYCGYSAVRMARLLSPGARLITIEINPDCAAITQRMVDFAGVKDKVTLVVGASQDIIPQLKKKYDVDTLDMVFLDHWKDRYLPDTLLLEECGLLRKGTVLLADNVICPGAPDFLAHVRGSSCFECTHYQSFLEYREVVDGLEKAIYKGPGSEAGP

[2] = Determination of metabolic stability in vitro (glucuronidation); assay type: in vitro ADME; details: entacapone = 1.00; human liver microsomes 0.4 mg/ml, UDPGA 5 mM, test substance 100 μM, 60 min at 37° C.; glucuronide HPLC area relative to entacapone
[3] = test system: isolated rat liver mitochondria; experiment: Determination of uncoupling of oxidative phosphorylation in vitro; details: threshold value of uncoupling (sample/Control slope ratio exceeding 2); oxygen consumption of rat liver mitochondria; tested 1-50 μM

Ki [1]	Relative glucuronidation [2]	SMILES	Uncoupling [3]
1.5 nM	–	CCOC(=O)c1sc2c([N+](=O)[O-])c(O)c(O)cc2c1Cl [Compound of example 5, 3-Chloro-5,6-dihydroxy-7-nitro-benzo[b]thiophene-2-carboxylic acid ethyl ester]	–
0.2 nM	–	O=C(O)c1ccc(NC(=O)c2sc3c([N+](=O)[O-])c(O)c(O)cc3c2Cl)cc1 [Compound of example 13, 4-[(3-Chloro-5,6-dihydroxy-7-nitro-benzo[b]thiophene-2-carbonyl)-amino]-benzoic acid]	–
0.6 nM	–	O=C(c1sc2c([N+](=O)[O-])c(O)c(O)cc2c1Cl)N1CCOCC1 [Compound of example 8, (3-Chloro-5,6-dihydroxy-7-nitro-benzo[b]thiophen-2-yl)-morpholin-4-yl-methanone]	–
0.6 nM	0.03	O=C(O)c1cccc(NC(=O)c2sc3c([N+](=O)[O-])c(O)c(O)cc3c2Cl)c1 [Compound of example 12, 3-[(3-Chloro-5,6-dihydroxy-7-nitro-benzo[b]thiophene-2-carbonyl)-amino]-benzoic acid]	–
0.9 nM	<0.01	O=C(c1cc2cc(O)c(O)c([N+](=O)[O-])c2s1)N1CCOCC1 [Compound of example 16, (5,6-Dihydroxy-7-nitro-benzo[b]thiophen-2-yl)-morpholin-4-yl-methanone]	–
1.5 nM	–	O=[N+]([O-])c1c(O)c(O)cc2c(Cl)csc12 [Compound of example 7, 3-Chloro-5,6-dihydroxy-7-nitro-benzo[b]thiophene]	–
2 nM	0.26	O=C1OCc2c1cc(O)c(O)c2[N+](=O)[O-] [Compound of example 23, 5,6-Dihydroxy-4-nitro-3H-isobenzofuran-1-one]	–
–	–	O=[N+]([O-])c1ccc(O)c([N+](=O)[O-])c1 [DNP, dinitrophenol]	10 µM
